# Source: article PMC12459314, “Subcutaneous administration of a novel TRPM8 antagonist reverses cold hypersensitivity while attenuating the drop in core body temperature” (British journal of pharmacology, 2024)
# Values joined by “and” are separate entries in the source; they are usually repeats but may differ in a detail not shown here. Identical values can stand only once.
# How the values were obtained:
# TRPM8 = test system: TRPM8; parameters: method as in Journigan et al., 2020; conditions: 30 mg·kg−1, s.c.; ref Journigan et al., 2020; cited from earlier work
# [1] = target: T1, μ opioid receptor (OPRM1) (Homo sapiens, UniProt P35372); test: Eurofins DiscoverX opioid receptor assays (SAFETYscan; HitHunter cAMP), OPRM1; format: cell-based
# T1 construct: purchased Eurofins DiscoverX (SAFETYscan; gpcrSCAN; HitHunter cAMP XS+)
# Procedure: (§1) Assessment of the safety profile of VBJ103 across 78 assays using recombinant human targets was performed with the SAFETYscan E/IC50 ELECT service by Eurofins DiscoverX (San Diego, CA, USA). […] The assays were performed utilizing PathHunter enzyme fragment complementation (EFC) technology, FLIPR®-based cellular screening assays, KINOMEscan kinase binding assays and a variety of enzymatic assays. Further potential functional activity at opioid receptors was performed in the gpcrSCAN service by Eurofins DiscoverX. Hit Hunter® cAMP assays were carried out using Enzyme Fragment Complementation (EFC) with β-galactosidase (β-Gal) as the functional reporter.
# (§2) Assessment of potential positive allosteric modulator (PAM) activity at μ, δ and κ opioid receptors was performed with the DiscoverX HitHunter cAMP XS+ assay by Eurofins DiscoverX (San Diego, CA, USA).
# human TRPM8 = test system: human TRPM8; parameters: method as in Journigan et al., 2020; conditions: ref Journigan et al., 2020, cited from earlier work
# [2] = parameters: method as in Journigan et al., 2020; conditions: intraplantar administration; ref Journigan et al., 2020; cited from earlier work
# [3] = target: T2, δ opioid receptor (OPRD1) (Homo sapiens, UniProt P41143); test: Eurofins DiscoverX opioid receptor assays (SAFETYscan; HitHunter cAMP), OPRD1; format: cell-based
# T2 construct: purchased Eurofins DiscoverX (SAFETYscan; gpcrSCAN; HitHunter cAMP XS+)
# Procedure: as §1, §2
# [4] = Core body temperature and home cage activity by radiotelemetry (s.c., i.p.); format: in vivo, mouse
# Procedure: Male and female C57Bl6J (Jackson Laboratories, Bar Harbor, USA, 8–12 weeks of age, 4 M:3F) were anaesthetised with isoflurane (2%–3% in 100% oxygen), and an HDX11 telemetry unit (Data Sciences) was inserted into the peritoneal cavity through a ventral midline incision. Animals were treated with buprenex (0.05 mg·kg^−1, s.c.every 8 h for 72 h) and enrofloxacin (2 mg·kg^−1, s.c.) and single-housed in a reverse light–dark cycle room (lights off 10 AM–10 PM). Mice were handled every day to acclimatise to injections, and experiments began 1 week later. All injections were performed between 1 and 2 PM. […] Body temperature was averaged into 5-min bins, whereas activity data were summed for the 5-min bin.
# [5] = Core body temperature by radiotelemetry after i.c.v. administration; format: in vivo, mouse; conditions: 306 nmol per 1 μL i.c.v.
# Procedure: A second set of male C57Bl6J mice (Jackson Laboratories, n = 8) was implanted with telemetry as described above and a 26-gauge brain cannula (Plastics One) targeted at the lateral ventricle using coordinates relative to Bregma: 0.3 mm caudal, 1.0 mm lateral, 3.0 mm ventral. This second procedure was also performed under isoflurane anesthesia. The brain cannula was secured to the skull with two screws and dental cement. Animals were treated with buprenex (0.05 mg·kg^−1, s.c. every 8 h for 48 h) and enrofloxacin (2 mg·kg^−1, s.c.), singly housed and handled daily as described above. A single i.c.v. injection was performed every other day in a randomized order and included: (1) Galanin-like peptide (3 nmol/1 μL), (2) VBJ103 (306 nmol/1 μL) and (3) VBJ103 vehicle (1 μL). Galanin-like peptide produced a decrease in body temperature in five of eight mice. Therefore, body temperature data in response to VBJ103 and vehicle are presented in these five mice. These studies were carried out with a single dose of VBJ103 (306 nmol/1 μL or ~4 mg·kg^−1), which was the highest dose achievable due to constraints of the injection volume and the solubility of VBJ103.
# [6] = ref Journigan et al, 2020; cited from earlier work
# [7] = target: T3, κ opioid receptor (OPRK1) (Homo sapiens, UniProt P41145); test: Eurofins DiscoverX opioid receptor assays (SAFETYscan; HitHunter cAMP), OPRK1; format: cell-based
# T3 construct: purchased Eurofins DiscoverX (SAFETYscan; gpcrSCAN; HitHunter cAMP XS+)
# Procedure: as §1, §2
# [8] = Positive Allosteric Modulator format, read-out: Max Response, cAMP
# T3 sequence (P41145 whole entry): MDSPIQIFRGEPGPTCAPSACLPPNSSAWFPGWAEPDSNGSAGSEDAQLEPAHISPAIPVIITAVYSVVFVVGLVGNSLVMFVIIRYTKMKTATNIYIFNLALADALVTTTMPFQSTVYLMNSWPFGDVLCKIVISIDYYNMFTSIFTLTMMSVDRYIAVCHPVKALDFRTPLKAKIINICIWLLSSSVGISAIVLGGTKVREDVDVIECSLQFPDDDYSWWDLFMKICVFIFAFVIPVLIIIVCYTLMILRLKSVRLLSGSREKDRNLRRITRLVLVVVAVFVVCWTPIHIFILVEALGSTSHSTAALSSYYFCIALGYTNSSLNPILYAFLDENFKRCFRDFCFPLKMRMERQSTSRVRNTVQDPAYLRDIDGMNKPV
# T2 sequence (P41143 whole entry): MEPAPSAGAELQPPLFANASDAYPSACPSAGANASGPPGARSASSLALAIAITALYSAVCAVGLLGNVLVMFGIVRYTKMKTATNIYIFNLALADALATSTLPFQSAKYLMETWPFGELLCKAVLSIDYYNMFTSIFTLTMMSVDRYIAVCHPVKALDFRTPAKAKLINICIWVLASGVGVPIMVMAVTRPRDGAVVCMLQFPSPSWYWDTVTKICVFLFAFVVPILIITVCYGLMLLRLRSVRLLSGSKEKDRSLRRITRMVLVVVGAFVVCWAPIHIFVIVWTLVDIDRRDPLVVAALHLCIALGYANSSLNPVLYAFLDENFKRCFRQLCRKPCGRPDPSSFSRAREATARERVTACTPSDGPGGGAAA
# T1 sequence (P35372 whole entry): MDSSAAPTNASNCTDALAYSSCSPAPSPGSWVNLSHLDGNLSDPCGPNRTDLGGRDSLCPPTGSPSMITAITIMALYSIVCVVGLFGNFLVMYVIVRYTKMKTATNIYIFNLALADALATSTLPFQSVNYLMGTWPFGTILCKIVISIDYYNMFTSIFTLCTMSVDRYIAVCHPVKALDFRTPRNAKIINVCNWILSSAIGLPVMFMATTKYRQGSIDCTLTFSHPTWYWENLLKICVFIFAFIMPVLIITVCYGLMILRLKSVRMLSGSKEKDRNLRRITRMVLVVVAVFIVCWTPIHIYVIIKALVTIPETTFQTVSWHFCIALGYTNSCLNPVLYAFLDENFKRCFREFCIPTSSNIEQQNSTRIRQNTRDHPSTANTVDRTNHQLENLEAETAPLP
compound,measurement,setting,value
"O=C(NC1CCC2(CCCC2)CC1)c1ccc(-c2ccccc2)cc1 [VBJ103, N-(Spiro[4.5]decan-8-yl)-[1,1′-biphenyl]-4-carboxamide]",icilin-induced wet dog shaking (WDS) behaviour,TRPM8,suppresses
same,Emax,"[1]; OPRM1, Positive Allosteric Modulator format, read-out: Max Response, cAMP",14.5%
same,EC50,"[1]; read-out: RC50 (EC50), cAMP",> 100 µM
same,activity at μ opioid receptor,[1]; safety panel,no activity
same,IC50,human TRPM8; against menthol-stimulated currents,0.064 ± 0.002 µM
same,selectivity for human TRPM8 versus TRPA1 and TRPV1,human TRPM8; heterologously expressed channels,~ 10 fold
same,oxaliplatin-induced hypersensitivity to non-noxious cooling (acetone drop),[2],dose-dependently suppresses
same,Emax,[3]; [8],0%
same,EC50,"[3]; read-out: RC50 (EC50), cAMP",> 100 µM
same,activity at δ opioid receptor,[3]; safety panel,no activity
same,drop in CBT versus vehicle,[4]; 3 mg·kg−1 i.p.,not different
same,time for CBT to return to baseline values,[4]; 3 mg·kg−1 s.c.,223 ± 25 min
same,time for CBT to return to baseline values,[4]; 10 mg·kg−1 s.c.,262 ± 48 min
same,time for CBT to return to baseline values,[4]; 30 mg·kg−1 s.c.,380 ± 59 min
same,change in home cage activity,"[4]; 3, 10 and 30 mg·kg−1 s.c.",without any significant change
same,fall in CBT,"[4]; 3, 10 and 30 mg·kg−1 s.c., over 180 min",1–2 °C and 2 °C
same,change in home cage activity,"[4]; 3, 10 or 30 mg·kg−1 i.p.",no detectable change
same,fall in CBT,"[4]; 3, 10 or 30 mg·kg−1 i.p.",dose-dependent fall
same,time of peak fall in CBT,"[4]; 3, 10 or 30 mg·kg−1 i.p.",≤ 60 min
same,drop in CBT versus 3 mg·kg−1 and vehicle,[4]; 10 and 30 mg·kg−1 i.p.,significantly greater
same,CBT or home cage activity compared to vehicle,[4]; 100 and 300 mg·kg−1 s.c.,did not alter
same,change in CBT compared to vehicle,[5],did not significantly (P > 0.05) alter
same,"Mouse Liver microsomes, T1/2",[6],30 min
same,Emax,[7]; [8],19.7%
same,EC50,"[7]; read-out: RC50 (EC50), cAMP",> 100 µM
same,activity at κ opioid receptor,[7]; safety panel,no activity
